Assays:
[1] = system: endogenous melanophore thrombin receptor; test: Pigment aggregation in mock (non-receptor) transfected melanophores; format: cell-based, Xenopus laevis; conditions: represents activation of endogenous thrombin receptor
Protocol: (§1) For Gi-coupled responses, cell monolayers plated in 96-well microtiter plates were incubated in the presence of 100 μl/well of 70% L-15 media containing 2% fibroblast-conditioned growth medium, 2 mM glutamine, 100 μg/ml streptomycin, 100 units/ml penicillin and 15 mM HEPES, pH 7.3, for 15 minutes in readings at 600 nm were determined, followed by the addition of ligands. After a 1.5 hour incubation in the dark at room temperature final absorbances were determined. Absorbance readings were converted to transmission values to quantitate pigment dispersion using the following formula: 1−Tf/Ti, where Ti=the initial transmission at 600 nm and Tf=the final transmission at 600 nm.
(§2) The Xenopus melanophore system (Daniolos, et al., 1992. Pigment Cell Res. 3, 38–43) is based on the dispersion and aggregation of intracellular pigment granules in response to changes in intracellular second messenger molecules. Agonist activation of a recombinant Gs- or Gq-coupled receptor expressed heterologously in melanophores leads to pigment dispersion. […] Changes in the melanophore pigmentation show a dose-dependent correlation with the level of specific receptor activation, and can be quantified by the change in absorbance at 600 nm between the nonactivated and agonist-activated cells (Daniolos, et al., 1992. Pigment Cell Res. 3, 38–43). […]

[2] = system: endogenous Xenopus receptor; test: Melanophore pigment aggregation control, endogenous melatonin response; format: cell-based, Xenopus laevis; conditions: stimulating the endogenous Xenopus receptor
Protocol: as §1, §2

| Pigment aggregation response in mock (non-receptor) transfected melanophores [1] | Aggregation response (control) [2] | Compound |
| --- | --- | --- |
| detected | – | thrombin |
| – | positive aggregation response | COc1ccc2[nH]cc(CCNC(C)=O)c2c1 [melatonin] |
